Molecular target: T1, KshB (Mycolicibacterium neoaurum, UniProt D2Y640)
T1 construct: gene kstR; pMA5-kshB primer R1 carries no His-tag
Test: dichlorophenolindophenol reduction assay
Assay type: biochemical
Settings: 0.25 mM NADH, 0.1 mM 2,6-dichlorophenolindophenol, 50 mM Tris-HCl pH 7.0, room temperature; electron donor; data not shown

T1 sequence (D2Y640 entry or part of it): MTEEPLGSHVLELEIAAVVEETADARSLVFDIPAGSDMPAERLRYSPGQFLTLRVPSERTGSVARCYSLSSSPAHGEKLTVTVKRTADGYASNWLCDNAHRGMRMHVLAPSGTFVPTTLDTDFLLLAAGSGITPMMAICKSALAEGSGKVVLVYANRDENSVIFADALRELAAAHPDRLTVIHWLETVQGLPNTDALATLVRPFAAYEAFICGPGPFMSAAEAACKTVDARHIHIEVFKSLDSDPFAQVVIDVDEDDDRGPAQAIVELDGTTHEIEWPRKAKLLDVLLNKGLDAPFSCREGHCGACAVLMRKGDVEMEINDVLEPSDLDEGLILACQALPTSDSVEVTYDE

Structure (SMILES): NC(=O)C1=CN([C@@H]2O[C@H](COP(=O)(O)OP(=O)(O)OC[C@H]3O[C@@H](n4cnc5c(N)ncnc54)[C@H](O)[C@@H]3O)[C@@H](O)[C@H]2O)C=CC1 [NADH]
- dichlorophenolindophenol reduction assay: accepts electrons from NAD(P)H and transfers it to oxygenase component KshA

— paper PMC4967059, “Efficient 9α-hydroxy-4-androstene-3,17-dione production by engineered Bacillus subtilis co-expressing Mycobacterium neoaurum 3-ketosteroid 9α-hydroxylase and B. subtilis glucose 1-dehydrogenase with NADH regeneration” (SpringerPlus, 2016)
